Converted amounts (≈) assume the structure as drawn.
Tests used:
Rhizoctonia solani = assay: Control test to damping-off of cucumber (Rhizoctonia solani); format: in vivo; details: soil drench, 14 days
Method: (§1) (1) The fungus causing damping-off of cucumber seedlings, Rhizoctonia solani or Fusarium oxysporum was cultured on a wheat bran medium at 28° C. for 5 days, which was mixed with sterilized soil and cultured for 2 days to prepare the inoculum. Sterilized soil (150 g) was put into a pot of 9 cm in diameter. The surface of the spot was covered with the above inoculum. […] Twenty cucumber seeds (Cultivar: Matsukaze) were sown 2 days after. The pots were kept at 30°±2° C. for 14 days. The infection was observed 14 days after and disease degree and percent disease degree were obtained by setting an evaluation index for each disease sympton.
(§2) (2) Evaluation [formula] wherein a: number of seeds without germination b: number of seedlings showing damping-off c: number of wilted seedlings d: number of seedlings being a little brownish in cotyledons or at the bottom of the stem e: number of uninfected seedlings [formula] wherein a: number of seeds without germination or seedlings with damping-off b: number of wilted seedlings c: number of seedlings being a little brownish in cotyledons or at the bottom of the stem d: number of uninfected seedlings [formula]

Fusarium oxysporum = assay: Control test to damping-off of cucumber (Fusarium oxysporum); format: in vivo; details: soil drench, 14 days
Method: as §1, §2

Botrytis cinerea = assay: Control test of Botrytis rot (gray mold) of cucumber; format: in vivo
Method: (1) Seedlings of cucumber (Cultivar: Matsukaze) were planted in a pot of 9 cm in diameter. The first leaf was sprayed with 3 ml each of solutions containing the test compound at the concentration of 125 or 31.3 ppm and the plant was dried by the air. After inoculation of the spores of Botrytis cinerea, the plants were kept at 20°±2° C. and 90-100% humidity ((i) protective spraying). Alternatively, the spores were inoculated at first and when the leaves suffered a little (about 2 days after), the solutions of the test compounds were sprayed ((ii) curative spraying). Evaluation was practised 3 days after the inoculation. Percent disease control was calculated by the ratio of diameter of diseased area in treated and untreated plants.
(§3) (1) Test methods and evaluation are the same as those in Tests 2, 4 and 6.

Sclerotinia sclerotiorum = assay: Control test to Sclerotinia rot of cucumber; format: in vivo
From the text: (1) This test was practised in the same manner as in the above test, control test of Botrytis rot (gray mold) of cucumber, except for using the mycelium of Sclerotinia sclerotiorum as inoculm. The same as in test 2.

Sphaerotheca fuliginea [1] = assay: Control test to powdery mildew of cucumber (foliar and soil treatment); format: in vivo; details: for Foliar Treatment, Curative Effect / Foliar Treatment, Protective Effect / Soil Treatment, Protective Effect: index 0-10
Method: (1) Seeds of cucumber (Cultivar: Matsukaze) were sown in a pot of 9 cm in diameter and the pots were kept in a green house until the plant was grown for 2-3 leaf stage. The first leaf was sprayed with, (i) 3 ml each of solutions containing the test compound at the prescribed concetrations and dried by the air (foliar treatment). Inoculation of spore suspension of Sphaerotheca fuliginea by spraying was practised 2 days before the treatment (curative effect) or 1 day after the treatment (protective effect). Alternatively, (ii) 5 ml of the solution was applied at the root of the seedlings (soil treatment). The pots were kept in a greenhouse for 2 days and inoculation was practised in the same manner noted above. (iii) After sprayed with 3 ml of a solution of the test compound at a concentration of 125 ppm and dried by the air, the treated pots were set in a greenhouse. Untreated pots were placed next to the treated pots. Those treated and untreated plants were inoculated with spore suspension. Protective effect of the test compounds by vapor was thus checked. The effect was examined 14 days after the inoculation of the spores.
0: Disease sign is observed on the whole leaf.
3: Disease sign is observed on the leaf in about 50%.
5: Disease sign is observed on the leaf in about 30%.
7: Disease sign is observed on the leaf in about 20%.
9: a little disease sign is observed.
as §3

Alternaria kikuchiana = assay: Anti-fungal activity in vitro; format: cell-based; details: 48 h, GY medium, 28° C., 2 days, spore suspension
Method: (§4) (1) Each test compound was diluted by two-fold dilution with GY medium (2% glucose and 0.4% yeast extract) containing 0.01% Tween 80 (trademark). Every diluted solution was inoculated with spore suspension (10^5-5 spores/ml) of Alternaria kikuchiana or a hyphae disk with agar (4 mm in diameter) of other fungi and incubated at 28° C. for 2 days.

Cladosporium herbarum = assay: Anti-fungal activity in vitro; format: cell-based; details: 48 h, GY medium, 28° C., 2 days
Method: as §4

Cochiobolus sativus = assay: Anti-fungal activity in vitro; format: cell-based; details: 48 h; GY medium, 28° C., 2 days
Method: as §4

Corticium rolfsii = assay: Anti-fungal activity in vitro; format: cell-based; details: Agroathelia rolfsii, 48 h; GY medium, 28° C., 2 days
Method: as §4

Diaporthe citri = assay: Anti-fungal activity in vitro; format: cell-based; details: 48 h, GY medium, 28° C., 2 days
Method: as §4

Monilinia fructicola = assay: Anti-fungal activity in vitro; format: cell-based; details: 48 h, GY medium, 28° C., 2 days
Method: as §4

Pyrenophora graminea = assay: Anti-fungal activity in vitro; format: cell-based; details: 48 h, GY medium, 28° C., 2 days
Method: as §4

Ustilago nuda = assay: Anti-fungal activity in vitro; format: cell-based; details: 48 h, GY medium, 28° C., 2 days
Method: as §4

Sphaerotheca fuliginea [2] = assay: Control test to powdery mildew of cucumber by vapor (filter paper disks); format: in vivo
Method: (1) The first leaves of young cucumber (Cultivar: Matsukaze) planted in pot of 9 cm in diameter were inoculated with spore suspension of Sphaerotheca fuliginea. After the plants were kept in a greenhouse for 2 days, thin cover plates, 15 mm in diameter, were put on the first leaves. Filter paper disks soaked with 80 μl of test solution at a concentration of 31.3, 7.8, 2.0 or 0.5 ppm were put on the plates for 3 days. Disease degrees were observed 14 days after the inoculation.
It is evaluated as + when an inhibition zone was observed around the plate, as ± when the inhibition zone has nearly the same diameter (8 mm) as that of plate or as - when there is no inhibition zone.
as §3

Puccinia coronata = assay: Control test of crown rust of oat; format: in vivo; details: 125 ppm
Method: (1) Young oats (Cultivar: Pc38) grown in pots in a greenhouse were (i) sprayed with 10 ml each of solution of the test compounds at a prescribed concentration and after air-drying, they were inoculated with 15 mg of uredospores of Puccinia coronata per 20 pots (protective spraying) or (ii) sprayed with the test solution 3 days after inoculation of uredospores. After each plant was kept at 20°-25° C. in a greenhouse for 2 weeks, number of uredia was counted on the first leaf.

| SMILES | Percent Disease Control, Curative Spraying (Botrytis cinerea; Table 2, 125 ppm) | Percent Disease Control, Protective Spraying (Botrytis cinerea; Table 2, 125 ppm) | Percent Disease Control, Curative Spraying (Sclerotinia sclerotiorum; 125 ppm) | Percent Disease Control, Protective Spraying (Sclerotinia sclerotiorum; 125 ppm) | Percent Disease Control, Curative Spraying (Botrytis cinerea; Table 2, 31.3 ppm) | Percent Disease Control, Protective Spraying (Botrytis cinerea; Table 2, 31.3 ppm) | Percent Disease Control, Curative Spraying (Sclerotinia sclerotiorum; 31.3 ppm) | Percent Disease Control, Protective Spraying (Sclerotinia sclerotiorum; 31.3 ppm) | Foliar Treatment, Curative Effect (Sphaerotheca fuliginea [1]; second Table 4, 0.5 ppm) | Foliar Treatment, Protective Effect (Sphaerotheca fuliginea [1]; second Table 4, 0.5 ppm) | Soil Treatment, Protective Effect (Sphaerotheca fuliginea [1]; second Table 4, 0.5 ppm) | Foliar Treatment, Curative Effect (Sphaerotheca fuliginea [1]; second Table 4, 2.0 ppm) | Foliar Treatment, Protective Effect (Sphaerotheca fuliginea [1]; second Table 4, 2.0 ppm) | Soil Treatment, Protective Effect (Sphaerotheca fuliginea [1]; second Table 4, 2.0 ppm) | Foliar Treatment, Curative Effect (Sphaerotheca fuliginea [1]; second Table 4, 7.8 ppm) | Foliar Treatment, Protective Effect (Sphaerotheca fuliginea [1]; second Table 4, 7.8 ppm) | Soil Treatment, Protective Effect (Sphaerotheca fuliginea [1]; second Table 4, 7.8 ppm) | Foliar Treatment, Curative Effect (Sphaerotheca fuliginea [1]; second Table 4, 31.3 ppm) | Foliar Treatment, Protective Effect (Sphaerotheca fuliginea [1]; second Table 4, 31.3 ppm) | Soil Treatment, Protective Effect (Sphaerotheca fuliginea [1]; second Table 4, 31.3 ppm) | further results |
| --- | --- | --- | --- | --- | --- | --- | --- | --- | --- | --- | --- | --- | --- | --- | --- | --- | --- | --- | --- | --- | --- |
| O[C@@]1(c2ccc(Cl)s2)CCCCC[C@H]1n1cncn1 (relative stereo) [Compound 13, cis-1-(5-chloro-2-thienyl)-2-(1,2,4-triazol-1-yl)cycloheptanol] | 94% | 100% | 95% | 100% |  |  |  |  |  |  |  |  |  |  |  |  |  |  |  |  | Disease Degree (Rhizoctonia solani; 500 ppm): 5; Percent Disease Control (Rhizoctonia solani; 500 ppm): 95%; Disease Degree (Fusarium oxysporum; 500 ppm): 100; Percent Disease Control (Fusarium oxysporum; 500 ppm): 0%; Protective Index, Foliar Treatment (Sphaerotheca fuliginea [1]; first Table 4, 125 ppm, foliar, 14 days): 10; Protective Index, Soil Treatment (Sphaerotheca fuliginea [1]; first Table 4, 125 ppm, soil, 14 days): 10 |
| O[C@@]1(c2ccc(Cl)cc2)CCCCC[C@H]1n1cncn1 (relative stereo) [Compound 24, cis-1-(4-chlorophenyl)-2-(1,2,4-triazol-1-yl)cycloheptanol] | 94% | 100% | 97% | 100% | 86% | 100% | 96% | 100% | 10 | 5 (Disease sign is observed on the leaf in about 30%.) | 0 | 10 | 10 | 0 | 10 | 10 | 10 | 10 | 10 | 10 | MIC (Alternaria kikuchiana): 12.5 µg/mL (≈ 42.8 µM); MIC (Cladosporium herbarum): 6.25 µg/mL (≈ 21.4 µM); MIC (Cochiobolus sativus): 6.25 µg/mL (≈ 21.4 µM); MIC (Corticium rolfsii): 50 µg/mL (≈ 171 µM); MIC (Diaporthe citri): 25 µg/mL (≈ 85.7 µM); MIC (Monilinia fructicola): 0.2 µg/mL (≈ 0.685 µM); MIC (Pyrenophora graminea): 12.5 µg/mL (≈ 42.8 µM); MIC (Ustilago nuda): 1.56 µg/mL (≈ 5.35 µM) |
| O[C@@]1(c2ccc(F)cc2)CCCCC[C@H]1n1cncn1 (relative stereo) [Compound 30] | 94% | 100% | 96% | 100% | 86% | 89% | 94% | 89% | 7 (Disease sign is observed on the leaf in about 20%.) | 0 | 0 | 10 | 9 | 0 | 10 | 10 | 10 | 10 | 10 | 10 | Disease Degree (Rhizoctonia solani; 31.3 ppm): 18; Percent Disease Control (Rhizoctonia solani; 31.3 ppm): 82%; Protective Effect by Vapor (Sphaerotheca fuliginea [2]; Table 6, 0.5 ppm): -; Protective Effect by Vapor (Sphaerotheca fuliginea [2]; Table 6, 2.0 ppm): -; Protective Effect by Vapor (Sphaerotheca fuliginea [2]; Table 6, 7.8 ppm): +; Protective Effect by Vapor (Sphaerotheca fuliginea [2]; Table 6, 31.3 ppm): + |
| O=C1C2CC=CCC2C(=O)N1SC(Cl)(Cl)Cl (stereo not shown) [Captan, reference compound] |  |  |  |  |  |  |  |  |  |  |  |  |  |  |  |  |  |  |  |  | Disease Degree (Fusarium oxysporum; 800 ppm): 0; Percent Disease Control (Fusarium oxysporum; 800 ppm): 100% |
| Cc1ccccc1C(=O)Nc1cccc(OC(C)C)c1 [Mepronil, reference compound] |  |  |  |  |  |  |  |  |  |  |  |  |  |  |  |  |  |  |  |  | Disease Degree (Rhizoctonia solani; 47 ppm): 77; Percent Disease Control (Rhizoctonia solani; 47 ppm): 23%; Disease Degree (Rhizoctonia solani; 750 ppm): 5; Percent Disease Control (Rhizoctonia solani; 750 ppm): 95% |
| CC(C)(C)C(=O)C(Oc1ccc(Cl)cc1)n1cncn1 (stereo not shown) [Triadimefon, reference compound] |  |  |  |  |  |  |  |  | 0 | 0 | 0 | 9 | 7 (Disease sign is observed on the leaf in about 20%.) | 0 | 10 | 9 | 3 (Disease sign is observed on the leaf in about 50%.) | 10 | 10 | 10 | Percent Disease Control, Curative Spraying (Puccinia coronata; curative): 100%; Percent Disease Control, Protective Spraying (Puccinia coronata; protective): 100%; Protective Effect by Vapor (Sphaerotheca fuliginea [2]; Table 6, 0.5 ppm): -; Protective Effect by Vapor (Sphaerotheca fuliginea [2]; Table 6, 2.0 ppm): -; Protective Effect by Vapor (Sphaerotheca fuliginea [2]; Table 6, 7.8 ppm): -; Protective Effect by Vapor (Sphaerotheca fuliginea [2]; Table 6, 31.3 ppm): - |

Reference: patent publication US5091539A, “Azolyl cycloalkanol derivatives and agricultural fungicides” (Shionogi & Co., Ltd., priority 1984, dated 1992)
